{"source": "the supplement of paper PMC10307832", "experiment_in_all_cases": "relative viability (nuclei count vs DMSO), 5 days (fraction); higher = more cells survive", "key": {"201T": {"system": "201T", "how_it_was_run": "(§1)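 Relative viability is defined as nuclei in treated wells over nuclei in vehicle wells. Duplicate plates were run and medians reported. Lung cancer cell lines in 1536-well plates were dosed by pin tool one day after seeding, with one drug or with a fixed anchor-drug dose plus five library-drug doses (not always all listed) in √10 steps, and nuclei were counted after 5 days.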"}, "BEN": {"system": "BEN", "how_it_was_run": "as §1"}, "CAL-12T": {"system": "CAL-12T", "how_it_was_run": "as §1"}, "HCC-827": {"system": "HCC-827", "how_it_was_run": "as §1"}, "LCLC-103H": {"system": "LCLC-103H", "how_it_was_run": "as §1"}, "LCLC-97TM1": {"system": "LCLC-97TM1", "how_it_was_run": "as §1"}, "LXF-289": {"system": "LXF-289", "how_it_was_run": "as §1"}, "NCI-H1395": {"system": "NCI-H1395", "how_it_was_run": "as §1"}, "NCI-H1437": {"system": "NCI-H1437", "how_it_was_run": "as §1"}, "NCI-H1792": {"system": "NCI-H1792", "how_it_was_run": "as §1"}, "NCI-H1793": {"system": "NCI-H1793", "how_it_was_run": "as §1"}, "NCI-H1944": {"system": "NCI-H1944", "how_it_was_run": "as §1"}, "NCI-H2087": {"system": "NCI-H2087", "how_it_was_run": "as §1"}, "NCI-H2405": {"system": "NCI-H2405", "how_it_was_run": "as §1"}, "NCI-H3122": {"system": "NCI-H3122", "how_it_was_run": "as §1"}, "NCI-H322M": {"system": "NCI-H322M", "how_it_was_run": "as §1"}, "NCI-H647": {"system": "NCI-H647", "how_it_was_run": "as §1"}, "NCI-H727": {"system": "NCI-H727", "how_it_was_run": "as §1"}, "RERF-LC-KJ": {"system": "RERF-LC-KJ", "how_it_was_run": "as §1"}}, "data": [{"smiles": "O=c1cc(-c2cccc3c2Sc2ccccc2S3)oc(N2CCOCC2)c1", "note": "+ NC(=O)Nc1cc(-c2cccc(F)c2)sc1C(=O)N[C@H]1CCCNC1 [AZD7762] (partner 0.2 µM)", "values": [{"measurement": "relative viability", "setting": "201T; first compound 0.08 µM", "value": 0.598}, {"measurement": "relative viability", "setting": "201T; first compound 0.253 µM", "value": 0.686}, {"measurement": "relative viability", "setting": "201T; first compound 0.8 µM", "value": 0.741}, {"measurement": "relative viability", "setting": "201T; first compound 2.53 µM", "value": 0.655}, {"measurement": "relative viability", "setting": "201T; first compound 8 µM", "value": 0.546}, {"measurement": "relative viability", "setting": "BEN; first compound 0.08 µM", "value": 0.694}, {"measurement": "relative viability", "setting": "BEN; first compound 0.253 µM", "value": 0.656}, {"measurement": "relative viability", "setting": "BEN; first compound 0.8 µM", "value": 0.647}, {"measurement": "relative viability", "setting": "BEN; first compound 2.53 µM", "value": 0.618}, {"measurement": "relative viability", "setting": "BEN; first compound 8 µM", "value": 0.734}, {"measurement": "relative viability", "setting": "CAL-12T; first compound 0.08 µM", "value": 0.585}, {"measurement": "relative viability", "setting": "CAL-12T; first compound 0.253 µM", "value": 0.555}, {"measurement": "relative viability", "setting": "CAL-12T; first compound 0.8 µM", "value": 0.601}, {"measurement": "relative viability", "setting": "CAL-12T; first compound 2.53 µM", "value": 0.626}, {"measurement": "relative viability", "setting": "CAL-12T; first compound 8 µM", "value": 0.642}, {"measurement": "relative viability", "setting": "HCC-827; first compound 0.08 µM", "value": 0.199}, {"measurement": "relative viability", "setting": "HCC-827; first compound 0.253 µM", "value": 0.196}, {"measurement": "relative viability", "setting": "HCC-827; first compound 0.8 µM", "value": 0.165}, {"measurement": "relative viability", "setting": "HCC-827; first compound 2.53 µM", "value": 0.122}, {"measurement": "relative viability", "setting": "HCC-827; first compound 8 µM", "value": 0.188}, {"measurement": "relative viability", "setting": "LCLC-103H; first compound 0.08 µM", "value": 0.717}, {"measurement": "relative viability", "setting": "LCLC-103H; first compound 0.253 µM", "value": 0.825}, {"measurement": "relative viability", "setting": "LCLC-103H; first compound 0.8 µM", "value": 0.866}, {"measurement": "relative viability", "setting": "LCLC-103H; first compound 2.53 µM", "value": 0.784}, {"measurement": "relative viability", "setting": "LCLC-103H; first compound 8 µM", "value": 0.822}, {"measurement": "relative viability", "setting": "LCLC-97TM1; first compound 0.08 µM", "value": 0.303}, {"measurement": "relative viability", "setting": "LCLC-97TM1; first compound 0.253 µM", "value": 0.191}, {"measurement": "relative viability", "setting": "LCLC-97TM1; first compound 0.8 µM", "value": 0.265}, {"measurement": "relative viability", "setting": "LCLC-97TM1; first compound 2.53 µM", "value": 0.114}, {"measurement": "relative viability", "setting": "LCLC-97TM1; first compound 8 µM", "value": 0.345}, {"measurement": "relative viability", "setting": "LXF-289; first compound 0.08 µM", "value": 1.11}, {"measurement": "relative viability", "setting": "LXF-289; first compound 0.253 µM", "value": 1.18}, {"measurement": "relative viability", "setting": "LXF-289; first compound 0.8 µM", "value": 1.15}, {"measurement": "relative viability", "setting": "LXF-289; first compound 2.53 µM", "value": 1.09}, {"measurement": "relative viability", "setting": "LXF-289; first compound 8 µM", "value": 1.12}, {"measurement": "relative viability", "setting": "NCI-H1395; first compound 0.08 µM", "value": 0.384}, {"measurement": "relative viability", "setting": "NCI-H1395; first compound 0.253 µM", "value": 0.395}, {"measurement": "relative viability", "setting": "NCI-H1395; first compound 0.8 µM", "value": 0.378}, {"measurement": "relative viability", "setting": "NCI-H1395; first compound 2.53 µM", "value": 0.373}, {"measurement": "relative viability", "setting": "NCI-H1395; first compound 8 µM", "value": 0.418}, {"measurement": "relative viability", "setting": "NCI-H1437; first compound 0.08 µM", "value": 1.07}, {"measurement": "relative viability", "setting": "NCI-H1437; first compound 0.253 µM", "value": 1.23}, {"measurement": "relative viability", "setting": "NCI-H1437; first compound 0.8 µM", "value": 1.2}, {"measurement": "relative viability", "setting": "NCI-H1437; first compound 2.53 µM", "value": 1.17}, {"measurement": "relative viability", "setting": "NCI-H1437; first compound 8 µM", "value": 1.23}, {"measurement": "relative viability", "setting": "NCI-H1792; first compound 0.08 µM", "value": 0.541}, {"measurement": "relative viability", "setting": "NCI-H1792; first compound 0.253 µM", "value": 0.632}, {"measurement": "relative viability", "setting": "NCI-H1792; first compound 0.8 µM", "value": 0.549}, {"measurement": "relative viability", "setting": "NCI-H1792; first compound 2.53 µM", "value": 0.55}, {"measurement": "relative viability", "setting": "NCI-H1792; first compound 8 µM", "value": 0.583}, {"measurement": "relative viability", "setting": "NCI-H1793; first compound 0.08 µM", "value": 0.299}, {"measurement": "relative viability", "setting": "NCI-H1793; first compound 0.253 µM", "value": 0.48}, {"measurement": "relative viability", "setting": "NCI-H1793; first compound 0.8 µM", "value": 0.458}, {"measurement": "relative viability", "setting": "NCI-H1793; first compound 2.53 µM", "value": 0.182}, {"measurement": "relative viability", "setting": "NCI-H1793; first compound 8 µM", "value": 0.377}, {"measurement": "relative viability", "setting": "NCI-H1944; first compound 0.08 µM", "value": 0.54}, {"measurement": "relative viability", "setting": "NCI-H1944; first compound 0.253 µM", "value": 0.456}, {"measurement": "relative viability", "setting": "NCI-H1944; first compound 0.8 µM", "value": 0.48}, {"measurement": "relative viability", "setting": "NCI-H1944; first compound 2.53 µM", "value": 0.55}, {"measurement": "relative viability", "setting": "NCI-H1944; first compound 8 µM", "value": 0.51}, {"measurement": "relative viability", "setting": "NCI-H2087; first compound 0.08 µM", "value": 1.25}, {"measurement": "relative viability", "setting": "NCI-H2087; first compound 0.253 µM", "value": 1.46}, {"measurement": "relative viability", "setting": "NCI-H2087; first compound 0.8 µM", "value": 1.07}, {"measurement": "relative viability", "setting": "NCI-H2087; first compound 2.53 µM", "value": 1.31}, {"measurement": "relative viability", "setting": "NCI-H2087; first compound 8 µM", "value": 1.25}, {"measurement": "relative viability", "setting": "NCI-H2405; first compound 0.08 µM", "value": 0.691}, {"measurement": "relative viability", "setting": "NCI-H2405; first compound 0.253 µM", "value": 0.808}, {"measurement": "relative viability", "setting": "NCI-H2405; first compound 0.8 µM", "value": 0.731}, {"measurement": "relative viability", "setting": "NCI-H2405; first compound 2.53 µM", "value": 0.64}, {"measurement": "relative viability", "setting": "NCI-H2405; first compound 8 µM", "value": 0.661}, {"measurement": "relative viability", "setting": "NCI-H3122; first compound 0.08 µM", "value": 1.02}, {"measurement": "relative viability", "setting": "NCI-H3122; first compound 0.253 µM", "value": 1.06}, {"measurement": "relative viability", "setting": "NCI-H3122; first compound 0.8 µM", "value": 1.03}, {"measurement": "relative viability", "setting": "NCI-H3122; first compound 2.53 µM", "value": 0.933}, {"measurement": "relative viability", "setting": "NCI-H3122; first compound 8 µM", "value": 1.04}, {"measurement": "relative viability", "setting": "NCI-H322M; first compound 0.08 µM", "value": 0.665}, {"measurement": "relative viability", "setting": "NCI-H322M; first compound 0.253 µM", "value": 0.537}, {"measurement": "relative viability", "setting": "NCI-H322M; first compound 0.8 µM", "value": 0.51}, {"measurement": "relative viability", "setting": "NCI-H322M; first compound 2.53 µM", "value": 0.429}, {"measurement": "relative viability", "setting": "NCI-H322M; first compound 8 µM", "value": 0.534}, {"measurement": "relative viability", "setting": "NCI-H647; first compound 0.08 µM", "value": 0.545}, {"measurement": "relative viability", "setting": "NCI-H647; first compound 0.253 µM", "value": 0.422}, {"measurement": "relative viability", "setting": "NCI-H647; first compound 0.8 µM", "value": 0.456}, {"measurement": "relative viability", "setting": "NCI-H647; first compound 2.53 µM", "value": 0.197}, {"measurement": "relative viability", "setting": "NCI-H647; first compound 8 µM", "value": 0.49}, {"measurement": "relative viability", "setting": "NCI-H727; first compound 0.08 µM", "value": 0.501}, {"measurement": "relative viability", "setting": "NCI-H727; first compound 0.253 µM", "value": 0.655}, {"measurement": "relative viability", "setting": "NCI-H727; first compound 2.53 µM", "value": 0.413}, {"measurement": "relative viability", "setting": "NCI-H727; first compound 8 µM", "value": 0.739}, {"measurement": "relative viability", "setting": "RERF-LC-KJ; first compound 0.08 µM", "value": 0.913}, {"measurement": "relative viability", "setting": "RERF-LC-KJ; first compound 0.253 µM", "value": 1.05}, {"measurement": "relative viability", "setting": "RERF-LC-KJ; first compound 0.8 µM", "value": 0.846}, {"measurement": "relative viability", "setting": "RERF-LC-KJ; first compound 2.53 µM", "value": 0.977}, {"measurement": "relative viability", "setting": "RERF-LC-KJ; first compound 8 µM", "value": 1.02}]}]}
